# Where two headings read alike, the source gives them in different places.
# Key:
# [1] = Titration of HPBS with hydrochloric acid or sulfuric acid (acid requirements, pKa, precipitation); assay type: physicochemical
# Procedure: Acid requirements for the precipitation of 2-(2-hydroxyphenyl)benzenesulfinic acid were determined via titration with hydrochloric acid or sulfuric acid for solutions prepared from synthetic HPBS or HPBS derived from the biocatalytic oxidation of DBT. The titrations were conducted using standard methods.
# FIG. 2 presents titration curves from 3 experiments. In experiment 1, a 110 mM solution of HPBS at pH 13 was treated with aqueous HCl. The HPBS phenolic group was titrated first, with a pKa of about 10.5. Precipitation of solid 2-(2-hydroxyphenyl)benzenesulfinic acid began at about pH 2, as the sulfinate group was protonated.
# In experiment 2, a 110 mM HPBS solution equilibrated with a middle distillate (or diesel fuel) at 30° C. and pH 6.6 was titrated with HCl. The middle distillate was added to determine if the presence of middle distillate components have any effect on the protonation of HPBS.
# In experiment 3, a 75 mM solution of HPBS prepared via the biocatalytic oxidation of DBT was titrated with sulfuric acid.
# [2] = Precipitation of 2-(2-hydroxyphenyl)benzenesulfinic acid from acidified HPBS solution; supernatant concentration by HPLC and redissolution; assay type: physicochemical
# Procedure: The pH of a concentrated (>50 mM) HPBS solution was adjusted to 1.2 at ambient temperature with concentrated sulfuric acid. An amorphous white precipitate formed rapidly and the supernatant HPBS concentration, as determined by HPLC, dropped to the range of 5-8 μM.
# [3] = Solubility of 2-(2-hydroxyphenyl)benzenesulfinic acid and DBTSi in liquid hydrocarbons; assay type: physicochemical
# Excerpt: Solubility of 2-(2-hydroxyphenyl)benzenesulfinic acid and DBTSi in liquid hydrocarbons
# The solubilities of 2-(2-hydroxyphenyl)benzenesulfinic acid and DBTSi in liquid hydrocarbons such as gas-oil or vacuum-gas-oil in an important parameter in process design as such refinery streams represent ultimate disposal sites for HPBS.
# [4] = comparison value for benzenesulfinic acid; cited from earlier work
structure (smiles),measurement,setting,value
"O=S(O)c1ccccc1-c1ccccc1O [HPBS, 2-(2'-hydroxyphenyl)benzenesulfinate]",pKa,"[1]; 110 mM HPBS at pH 13 titrated with aqueous HCl, read-out: pKa of phenolic group",~10.5
same,solubility,"[2]; water, pH 1.2, ambient temperature, concentrated (>50 mM) HPBS, sulfuric acid, HPLC, read-out: supernatant HPBS concentration after precipitation",5 to 8 µM
O=S(O)c1ccccc1-c1ccccc1O [2-(2-hydroxyphenyl)benzenesulfinic acid],solubility in TMD,"[3]; ambient temperature, TMD, x-ray fluorescence detection",below the limits of detection
same,solubility in hexadecane,"[3]; ambient temperature, hexadecane, x-ray fluorescence detection",below the limits of detection
same,solubility in toluene,"[3]; ambient temperature, toluene, x-ray fluorescence detection",below the limits of detection
same,solubility in gas-oil,"[3]; gas-oil, 50° C.",no detectable solubility
same,solubility in middle distillate,"[3]; middle distillate, 50° C.",no detectable solubility
same,pH at which precipitation of solid began,[1]; 110 mM HPBS titrated with aqueous HCl,~2
same,"solubility of precipitate in organic solvents, such as toluene","[2]; organic solvents, such as toluene",only sparingly soluble
same,dissolution of precipitate in water,[2]; water at neutral pH,dissolved rapidly
O=S(O)c1ccccc1 [benzenesulfinic acid],pKa,[4],1.2
"O=S1Oc2ccccc2-c2ccccc21 (centres unmarked) [DBTSi, dibenzothiophene sultine]",solubility in gas-oil,[3],ca. 1.4%
same,solubility in hexadecane,[3],0.33 % by weight
same,"solubility in liquid hydrocarbons, in words",[3],substantially more soluble in liquid hydrocarbons
same,solubility in middle distillate,[3],ca. 1%
same,solubility in vacuum gas oil,[3],4.3%
same,temperature dependence of solubility in the hydrocarbon,[3],increased with increasing temperature
